Measured values as given in BindingDB's records for doi:10.1016/j.bmcl.2010.06.021 (Shujitsu University, 2010).

Molecular target: Beta-secretase 1 (Homo sapiens, UniProt P56817)
Experiment: Inhibition of BACE1 after 60 mins by FRET assay

Beta-secretase 1, sequence (P56817 whole entry): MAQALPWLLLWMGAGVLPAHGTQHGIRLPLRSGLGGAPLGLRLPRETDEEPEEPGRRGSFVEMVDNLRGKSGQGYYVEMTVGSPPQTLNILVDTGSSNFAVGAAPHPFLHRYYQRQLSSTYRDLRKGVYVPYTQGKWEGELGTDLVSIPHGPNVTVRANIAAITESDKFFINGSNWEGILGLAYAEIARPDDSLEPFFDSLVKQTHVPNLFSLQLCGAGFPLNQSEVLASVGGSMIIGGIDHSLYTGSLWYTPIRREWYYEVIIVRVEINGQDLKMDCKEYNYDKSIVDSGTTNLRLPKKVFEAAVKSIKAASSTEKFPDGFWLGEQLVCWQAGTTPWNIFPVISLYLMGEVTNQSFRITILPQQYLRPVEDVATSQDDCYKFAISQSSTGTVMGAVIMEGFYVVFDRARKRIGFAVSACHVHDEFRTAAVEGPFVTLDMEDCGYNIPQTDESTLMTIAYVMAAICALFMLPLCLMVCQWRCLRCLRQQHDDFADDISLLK

IC50	SMILES
> 10 µM	COc1ccc(-c2cc(=O)c3c(O)cc(O)c(-c4cc(-c5cc(O)c6c(=O)cc(OC)cc-6o5)ccc4OC)c3o2)cc1 [sciadopitisin]
> 10 µM	COc1cc2oc(-c3ccc(OC)c(-c4c(OC)cc(O)c5c(=O)cc(-c6ccc(O)cc6)oc45)c3)cc(O)c-2c(=O)c1 [7-O-methyl-isoginkgetin]
> 10 µM	COc1ccc(-c2cc(=O)c3c(O)cc(OC)c(-c4cc(-c5cc(O)c6c(=O)cc(O)cc-6o5)ccc4O)c3o2)cc1 [7'',4'''-dimethylamentoflavone]
> 10 µM	COc1ccc(-c2cc(O)c3c(=O)cc(O)cc-3o2)cc1-c1c(OC)cc(O)c2c(=O)cc(-c3ccc(O)cc3)oc12 [4',7''-di-O-methyl-amentoflavone]
> 10 µM	O=c1cc(O)cc2oc(-c3ccc(Oc4c(O)cc5oc(-c6ccc(O)cc6)cc(=O)c5c4O)cc3)cc(O)c1-2
> 10 µM	O=c1cc(O)cc2oc(-c3ccc(O)c(-c4c(O)cc5oc(-c6ccc(O)cc6)cc(=O)c5c4O)c3)cc(O)c1-2
> 10 µM	COc1ccc(-c2cc(=O)c3c(O)cc(OC)c(-c4cc(-c5cc(O)c6c(=O)cc(O)cc-6o5)ccc4OC)c3o2)cc1 [kayaflavone]
> 10 µM	COc1ccc(-c2cc(=O)c3c(O)cc(OC)c(-c4cc(-c5cc(O)c6c(=O)cc(OC)cc-6o5)ccc4OC)c3o2)cc1 [7,4',7'',4'''-O-methyl-amentoflavone]
> 10 µM	COc1ccc(-c2cc(=O)c3c(O)cc(OC)c(-c4cc(-c5cc(O)c6c(=O)cc(OC)cc-6o5)ccc4O)c3o2)cc1 [heveaflavone]
